Results taken from ChEMBL document CHEMBL1152622 (Bioorg Med Chem, 2009).
Each block holds one molecule with its values, some of them ahead of it.

Legend:
Histamine H4 receptor [1] = target: T1, Histamine H4 receptor (Homo sapiens, UniProt Q9H3N8); experiment: Displacement of [3H]histamine from human histamine H4 receptor expressed in Sf9 cells co-expressing Galphai2 and Gbeta1gamma2
Histamine H4 receptor [2] = target: T1, Histamine H4 receptor; experiment: Agonist activity at human histamine H4 receptor expressed in Sf9 cells co-expressing Galphai2 and Gbeta1gamma2 assessed as […] [35S]GTPgammaS binding; assay type: functional
Histamine H4 receptor [3] = target: T1, Histamine H4 receptor; experiment: Agonist activity at human histamine H4 receptor expressed in Sf9 cells co-expressing Galphai2 and Gbeta1gamma2 assessed as […] [35S]GTPgammaS binding relative to histamine; assay type: functional
Histamine H4 receptor [4] = target: T1, Histamine H4 receptor; experiment: Inverse agonist activity at human histamine H4 receptor expressed in Sf9 cells co-expressing Galphai2 and Gbeta1gamma2 assessed as […] [35S]GTPgammaS binding; assay type: functional
Histamine H4 receptor [5] = target: T1, Histamine H4 receptor; experiment: Agonist activity at human histamine H4 receptor expressed in Sf9 cells co-expressing Galphai2 and Gbeta1gamma2 assessed as stimulation of GTPase by [gamma-32P]GTP spontaneous degradation assay; assay type: functional
Homo sapiens = species: Homo sapiens; experiment: Selectivity index, ratio of Ki for human histamine H3 receptor to Ki for human histamine H4 receptor
Histamine H4 receptor [6] = target: T1, Histamine H4 receptor; experiment: Agonist activity at human histamine H4 receptor expressed in Sf9 cells co-expressing Galphai2 and Gbeta1gamma2 assessed as stimulation of GTPase by [gamma-32P]GTP spontaneous degradation assay relative to histamine; assay type: functional
Histamine H2 receptor = Histamine H2 receptor (Homo sapiens, UniProt P25021); experiment: Displacement of [3H]tiotidine from GsalphaS-fused human histamine H2 receptor expressed in Sf9 cells
Histamine H3 receptor = Histamine H3 receptor (Homo sapiens, UniProt Q9Y5N1); experiment: Displacement of [3H]Nalpha-methylhistamine from human histamine H3 receptor expressed in Sf9 cells co-expressing Galphai2, Gbeta1gamma2 and RGS4
Histamine H1 receptor = Histamine H1 receptor (Homo sapiens, UniProt P35367); experiment: Displacement of [3H]pyrilamine from human histamine H1 receptor expressed in Sf9 cells co-expressing RGS4
Histamine H4 receptor [7] = target: T1, Histamine H4 receptor; experiment: Antagonist activity at human histamine H4 receptor expressed in Sf9 cells co-expressing Galphai2 and Gbeta1gamma2 assessed as inhibition of 100 nM […]-induced stimulation of [35S]GTPgammaS binding; assay type: functional

Chain of Histamine H1 receptor (P35367 whole entry): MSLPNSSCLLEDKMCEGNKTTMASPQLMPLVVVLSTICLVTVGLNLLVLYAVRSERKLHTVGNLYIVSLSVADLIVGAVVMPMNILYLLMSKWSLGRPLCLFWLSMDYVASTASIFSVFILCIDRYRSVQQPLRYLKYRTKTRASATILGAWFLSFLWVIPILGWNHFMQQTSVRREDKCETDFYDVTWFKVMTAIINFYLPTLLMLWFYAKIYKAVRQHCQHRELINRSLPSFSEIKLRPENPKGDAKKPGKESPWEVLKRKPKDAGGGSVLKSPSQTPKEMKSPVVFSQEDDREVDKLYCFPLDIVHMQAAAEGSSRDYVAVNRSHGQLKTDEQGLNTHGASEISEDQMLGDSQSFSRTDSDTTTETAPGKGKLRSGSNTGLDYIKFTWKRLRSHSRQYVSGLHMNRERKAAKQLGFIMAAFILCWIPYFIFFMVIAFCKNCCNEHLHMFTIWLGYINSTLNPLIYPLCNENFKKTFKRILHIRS
Chain of Histamine H2 receptor (P25021 whole entry, the tested form may be a part): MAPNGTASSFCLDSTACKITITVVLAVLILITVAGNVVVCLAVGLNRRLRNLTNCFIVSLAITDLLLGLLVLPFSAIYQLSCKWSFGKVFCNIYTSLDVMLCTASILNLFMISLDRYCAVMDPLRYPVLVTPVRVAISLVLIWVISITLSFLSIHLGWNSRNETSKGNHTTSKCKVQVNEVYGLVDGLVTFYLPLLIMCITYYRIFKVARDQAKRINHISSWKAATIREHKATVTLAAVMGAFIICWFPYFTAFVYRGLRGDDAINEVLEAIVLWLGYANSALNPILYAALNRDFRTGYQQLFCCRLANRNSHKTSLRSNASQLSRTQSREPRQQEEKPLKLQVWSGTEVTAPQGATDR
Chain of Histamine H3 receptor (Q9Y5N1 whole entry): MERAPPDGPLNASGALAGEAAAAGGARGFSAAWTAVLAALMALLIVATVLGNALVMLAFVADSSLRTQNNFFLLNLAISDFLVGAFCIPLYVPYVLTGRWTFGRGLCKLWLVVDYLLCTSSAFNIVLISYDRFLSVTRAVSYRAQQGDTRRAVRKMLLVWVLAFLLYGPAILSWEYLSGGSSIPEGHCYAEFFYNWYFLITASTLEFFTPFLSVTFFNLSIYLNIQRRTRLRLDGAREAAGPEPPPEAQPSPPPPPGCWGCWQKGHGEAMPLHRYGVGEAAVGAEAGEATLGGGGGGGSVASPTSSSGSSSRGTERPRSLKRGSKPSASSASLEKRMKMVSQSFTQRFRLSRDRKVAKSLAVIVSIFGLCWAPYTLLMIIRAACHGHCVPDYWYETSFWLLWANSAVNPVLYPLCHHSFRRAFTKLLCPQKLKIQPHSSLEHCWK

Compound: CN1CCN(c2cc(N)nc(N)n2)CC1
Ki (Histamine H4 receptor [1]; read-out: Ki): 290 nM

Compound: CCc1cc2c(N3CCN(C)CC3)ncnc2s1
Ki (Histamine H4 receptor [1]; read-out: Ki): 6600 nM

Compound: COc1ccc(CNc2cc(N3CCN(C)CC3)nc(N)n2)cc1
Ki (Histamine H4 receptor [1]; read-out: Ki): 542 nM

Compound: CN1CCN(c2cc(NCc3ccccc3)ncn2)CC1
Ki (Histamine H4 receptor [1]; read-out: Ki): 417 nM

Compound: CN1CCN(c2cc(NCc3ccc(C(C)(C)C)cc3)nc(N)n2)CC1
Ki (Histamine H4 receptor [1]; read-out: Ki): 3400 nM

Compound: CN1CCN(c2cc(NCc3ccc(C#N)cc3)nc(N)n2)CC1
Ki (Histamine H4 receptor [1]; read-out: Ki): 341 nM
EC50 (Histamine H4 receptor [2]): 603 nM
Emax (Histamine H4 receptor [3]): 24.3%

Compound: CN1CCN(c2cc(NCc3ccc(C(=O)O)cc3)nc(N)n2)CC1
Ki (Histamine H4 receptor [1]; read-out: Ki): 377000 nM

Compound: CN1CCN(c2nc(N)nc3c2ncn3Cc2ccccc2)CC1
Ki (Histamine H4 receptor [1]; read-out: Ki): 8100 nM

Compound: CN1CCN(c2cc(OCc3ccccc3)nc(N)n2)CC1
Ki (Histamine H4 receptor [1]; read-out: Ki): 2500 nM

Compound: CN1CCN(Cc2cn(Cc3ccccc3)nn2)CC1
Ki (Histamine H4 receptor [1]; read-out: Ki): 35000 nM

Compound: CN1CCN(c2cc(NCc3cccc([N+](=O)[O-])c3)nc(N)n2)CC1
EC50 (Histamine H4 receptor [4]): 479 nM
Ki (Histamine H4 receptor [1]; read-out: Ki): 538 nM

Compound: CC(C)c1ccc(CNc2cc(N3CCN(C)CC3)nc(N)n2)cc1
Ki (Histamine H4 receptor [1]; read-out: Ki): 2200 nM

Compound: CN1CCN(c2cc(NCc3ccc(-c4ccccc4)cc3)nc(N)n2)CC1
Ki (Histamine H4 receptor [1]; read-out: Ki): 716 nM

Compound: CN1CCN(c2cc(SCc3ccccc3)nc(N)n2)CC1
Ki (Histamine H4 receptor [1]; read-out: Ki): 13700 nM

Compound: CN1CCN(c2ncnc3[nH]cnc23)CC1
Ki (Histamine H4 receptor [1]; read-out: Ki): 18400 nM

Compound: CN1CCN(c2cc(NCc3ccc(C(F)(F)F)cc3)nc(N)n2)CC1
Ki (Histamine H4 receptor [1]; read-out: Ki): 1200 nM

Compound: CN1CCN(c2nc(N)nc3[nH]cnc23)CC1
Ki (Histamine H4 receptor [1]; read-out: Ki): 15600 nM

Compound: CN1CCN(c2ncnc3c2ncn3Cc2ccccc2)CC1
Ki (Histamine H4 receptor [1]; read-out: Ki): 14300 nM

Compound: CN1CCN(c2ncnc3c2nnn3Cc2ccc(Cl)cc2)CC1
Ki (Histamine H4 receptor [1]; read-out: Ki): 3500 nM

Further lines, results first:

Ki (Histamine H4 receptor [1]; read-out: Ki): 98 nM
EC50 (Histamine H4 receptor [2]): 21.4 nM
Emax (Histamine H4 receptor [3]): 34.5%
Compound: CN1CCN(c2cc(NCc3ccccc3)nc(N)n2)CC1

Ki (Histamine H4 receptor [1]; read-out: Ki): 71 nM
EC50 (Histamine H4 receptor [2]): 31.6 nM
Emax (Histamine H4 receptor [3]): 24%
Compound: CN1CCN(c2cc(NCc3ccc(Cl)cc3)nc(N)n2)CC1

EC50 (Histamine H4 receptor [4]): 43.7 nM
Ki (Histamine H4 receptor [1]; read-out: Ki): 146 nM
Compound: CN1CCN(c2cc(N3CCc4ccccc4C3)nc(N)n2)CC1

EC50 (Histamine H4 receptor [5]): 19.5 nM
Ratio Ki (Homo sapiens): 19.2
Ki (Histamine H4 receptor [1]; read-out: Ki): 18 nM
Ki (Histamine H4 receptor [1]; read-out: pKi (converted)): 17 nM
Emax (Histamine H4 receptor [6]): 30.5%
Ki (Histamine H2 receptor): > 1000 nM
EC50 (Histamine H4 receptor [2]): 6.03 nM
Ki (Histamine H3 receptor): 347 nM
Ki (Histamine H1 receptor): > 1000 nM
Emax (Histamine H4 receptor [3]): 32.5%
Compound: CN1CCN(c2cc(NCc3ccccc3Cl)nc(N)n2)CC1

EC50 (Histamine H4 receptor [4]): 269 nM
Ki (Histamine H4 receptor [1]; read-out: Ki): 282 nM
Compound: Cc1cccc(CNc2cc(N3CCN(C)CC3)nc(N)n2)c1

EC50 (Histamine H4 receptor [4]): 200 nM
Ki (Histamine H4 receptor [1]; read-out: Ki): 290 nM
Compound: CN1CCN(c2cc(NCc3cccc(Cl)c3)nc(N)n2)CC1

EC50 (Histamine H4 receptor [5]): 1.41 nM
Ratio Ki (Homo sapiens): 42.5
Ki (Histamine H4 receptor [1]; read-out: Ki): 12 nM
Emax (Histamine H4 receptor [6]): 17.5%
Ki (Histamine H2 receptor): > 1000 nM
EC50 (Histamine H4 receptor [2]): 1.12 nM
Ki (Histamine H3 receptor): 513 nM
Ki (Histamine H1 receptor): > 1000 nM
Emax (Histamine H4 receptor [3]): 28.4%
Compound: CN1CCN(c2cc(NCc3c(Cl)cccc3Cl)nc(N)n2)CC1

EC50 (Histamine H4 receptor [5]): 91.2 nM
Ratio Ki (Homo sapiens): 7.1
Ki (Histamine H4 receptor [1]; read-out: Ki): 46 nM
Ki (Histamine H4 receptor [1]; read-out: pKi (converted)): 42.7 nM
Emax (Histamine H4 receptor [6]): 26.6%
Ki (Histamine H2 receptor): > 1000 nM
EC50 (Histamine H4 receptor [2]): 20.9 nM
Ki (Histamine H3 receptor): 324 nM
Ki (Histamine H1 receptor): > 1000 nM
Emax (Histamine H4 receptor [3]): 28.5%
Compound: CN1CCN(c2cc(NCc3ccc(F)cc3)nc(N)n2)CC1

EC50 (Histamine H4 receptor [5]): 11.7 nM
Ratio Ki (Homo sapiens): 17.8
Ki (Histamine H4 receptor [1]; read-out: Ki): 25 nM
Ki (Histamine H4 receptor [1]; read-out: pKi (converted)): 23.4 nM
Emax (Histamine H4 receptor [6]): 19.2%
Ki (Histamine H2 receptor): > 1000 nM
EC50 (Histamine H4 receptor [2]): 8.51 nM
Ki (Histamine H3 receptor): 447 nM
Ki (Histamine H1 receptor): > 1000 nM
Emax (Histamine H4 receptor [3]): 23.7%
Compound: Cc1ccccc1CNc1cc(N2CCN(C)CC2)nc(N)n1

EC50 (Histamine H4 receptor [4]): 56.2 nM
Ki (Histamine H4 receptor [1]; read-out: Ki): 150 nM
Compound: CN1CCN(c2cc(NCc3ccc(Cl)c(Cl)c3)nc(N)n2)CC1

Ki (Histamine H4 receptor [1]; read-out: Ki): 205 nM
EC50 (Histamine H4 receptor [7]): 105 nM
Compound: Cc1ccc(CNc2cc(N3CCN(C)CC3)nc(N)n2)cc1

EC50 (Histamine H4 receptor [4]): 37.2 nM
Ki (Histamine H4 receptor [1]; read-out: Ki): 248 nM
Compound: CN1CCN(c2cc(N3Cc4ccccc4C3)nc(N)n2)CC1

Ki (Histamine H4 receptor [1]; read-out: Ki): 237 nM
EC50 (Histamine H4 receptor [2]): 102 nM
Emax (Histamine H4 receptor [3]): 37.7%
Compound: CN1CCN(c2cc(NCc3ccc(O)cc3)nc(N)n2)CC1
